According to PubChem BioAssay (NCI):
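GI50 is the concentration that inhibits growth by half. TGI: total growth inhibition.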

Legend:
Experiment in all cases: growth of human tumour cells (NCI), 384-well format; in the data active means GI50 below about 0.43 µM; inactive means the rest
[1] = tested on: SK-MEL-28 melanoma
[2] = tested on: OVCAR-5 ovarian
[3] = tested on: EKVX NSCLC
[4] = tested on: NCI-H522 lung
[5] = tested on: LOX IMVI melanoma
[6] = tested on: SW-620 colon
[7] = tested on: OVCAR-8 ovarian
[8] = tested on: SK-MEL-5 melanoma
[9] = tested on: ACHN renal
[10] = tested on: MDA-MB-468 breast
[11] = tested on: U251 glioblastoma
[12] = tested on: T-47D breast
[13] = tested on: OVCAR-3 ovarian
[14] = tested on: SNB-19 CNS
[15] = tested on: NCI-H322M lung
[16] = tested on: MALME-3M melanoma
[17] = tested on: OVCAR-4 ovarian
[18] = tested on: HL-60(TB) leukemia
[19] = tested on: HCT-15 colon
[20] = tested on: SF-268 CNS
[21] = tested on: A549 NSCLC
[22] = tested on: HOP-92 NSCLC
[23] = tested on: HT29 colon
[24] = tested on: RXF 393 renal
[25] = tested on: NCI-H23 lung
[26] = tested on: UACC-62 melanoma
[27] = tested on: MDA-MB-435 melanoma
[28] = tested on: MDA-MB-231 breast
[29] = tested on: CAKI-1 renal
[30] = tested on: SF-539 CNS
[31] = tested on: HCC-2998 colon
[32] = tested on: IGROV1 ovarian
[33] = tested on: MCF7 breast
[34] = tested on: A498 renal
[35] = tested on: RPMI-8226 leukemia
[36] = tested on: HOP-62 NSCLC
[37] = tested on: NCI-H460 NSCLC
[38] = tested on: SNB-75 CNS
[39] = tested on: SR leukemia
[40] = tested on: TK-10 renal
[41] = tested on: 786-0 renal
[42] = tested on: SF-295 CNS
[43] = tested on: NCI/ADR-RES ovarian
[44] = tested on: HS 578T breast
[45] = tested on: DU-145 prostate
[46] = tested on: KM12 colon
[47] = tested on: SN12C renal
[48] = tested on: UACC-257 melanoma
[49] = tested on: M14 melanoma
[50] = tested on: UO-31 renal
[51] = tested on: NCI-H226 lung
[52] = tested on: MOLT-4 leukemia
[53] = tested on: COLO 205 colon
[54] = tested on: PC-3 prostate
[55] = tested on: SK-OV-3 ovarian
[56] = tested on: CCRF-CEM leukemia
[57] = tested on: K-562 leukemia

CN[C@@H](C)C(=O)N[C@H](C(=O)N1CCC[C@H]1C(=O)Nc1snnc1-c1ccccc1)C1CCCCC1
26.9 µM: TGI [10]
active: GI50 [16] 0.0294 µM | GI50 [17] 0.0142 µM | GI50 [18] 0.412 µM | GI50 [28] 0.0979 µM
0.046 µM: TGI [17]
91.5 µM: TGI [26]
45.2 µM: TGI [43]
46.2 µM: TGI [40]
35.3 µM: TGI [57]
33.6 µM: TGI [39]
32.2 µM: TGI [56]
15.5 µM: TGI [18]
23.8 µM: TGI [24]
0.392 µM: TGI [16]
72.7 µM: TGI [49]
73.6 µM: TGI [22]
> 100 µM: TGI [2] | TGI [3] | TGI [5] | TGI [6] | TGI [11] | TGI [12] | TGI [13] | TGI [14] | TGI [15] | TGI [19] | TGI [20] | TGI [21] | TGI [25] | TGI [27] | TGI [29] | TGI [30] | TGI [32] | TGI [33] | TGI [37] | TGI [38] | TGI [41] | TGI [42] | TGI [44] | TGI [45] | TGI [46] | TGI [47] | TGI [50] | TGI [51] | TGI [53] | TGI [54]
11.9 µM: TGI [4]
32.5 µM: TGI [48]
40.9 µM: TGI [31]
2.78 µM: TGI [55]
74.6 µM: TGI [34]
35.7 µM: TGI [23]
35.6 µM: TGI [52]
57.2 µM: TGI [35]
33.2 µM: TGI [36]
36.2 µM: TGI [7]
64.4 µM: TGI [1]
39.5 µM: TGI [9]
18.1 µM: TGI [8]
2.51 µM: TGI [28]
inactive: GI50 [1] 22.7 µM | GI50 [2] 59.1 µM | GI50 [3] 97.3 µM | GI50 [4] 2.44 µM | GI50 [5] 37.9 µM | GI50 [6] > 100 µM | GI50 [7] 16.5 µM | GI50 [8] 0.845 µM | GI50 [9] 17.4 µM | GI50 [10] 6.93 µM | GI50 [11] 59.7 µM | GI50 [12] 45.5 µM | GI50 [13] 26.2 µM | GI50 [14] > 100 µM | GI50 [15] > 100 µM | GI50 [19] 80.7 µM | GI50 [20] > 100 µM | GI50 [21] > 100 µM | GI50 [22] 18.1 µM | GI50 [23] 17.3 µM | GI50 [24] 0.444 µM | GI50 [25] 14.2 µM | GI50 [26] 30.1 µM | GI50 [27] 31.2 µM | GI50 [29] 52.1 µM | GI50 [30] 40.1 µM | GI50 [31] 21.5 µM | GI50 [32] 64.5 µM | GI50 [33] 31.7 µM | GI50 [34] 26.4 µM | GI50 [35] 22.7 µM | GI50 [36] 11.2 µM | GI50 [37] 38.7 µM | GI50 [38] 38.7 µM | GI50 [39] 13.5 µM | GI50 [40] 18.6 µM | GI50 [41] 31.1 µM | GI50 [42] 64 µM | GI50 [43] 5.89 µM | GI50 [44] 34.5 µM | GI50 [45] 49.9 µM | GI50 [46] 60.1 µM | GI50 [47] > 100 µM | GI50 [48] 16.6 µM | GI50 [49] 28.2 µM | GI50 [50] 8.13 µM | GI50 [51] 70.7 µM | GI50 [52] 17.8 µM | GI50 [53] 34.5 µM | GI50 [54] 45.6 µM | GI50 [56] 10.9 µM | GI50 [57] 19.1 µM
